This is an account of results in patent US6521620B1, “Bicyclic compounds capable of inhibiting tyrosine kinases of the epidermal growth factor receptor family” (Warner-Lambert Company, priority 1994, dated 2003).

Usually IC50 stands for the concentration at which inhibition is half-maximal.

Assay [1] addresses T1, Human EGF receptor tyrosine kinase (Homo sapiens, UniProt P00533).
T1 construct: isolated from A431 human epidermoid carcinoma cells which overexpress EGF receptor; endogenous in cells; host or cells: A431 human epidermoid carcinoma cells; purified from the lysate on wheat germ agglutinin sepharose
The assay can be described thus: EGF receptor tyrosine kinase inhibition (phosphorylation of PLC-gamma 1 derived peptide). The assay is classed as biochemical. On the procedure:
Purification of Epidermal Growth Factor Receptor Tyrosine Kinase—Human EGF receptor tyrosine kinase was isolated from A431 human epidermoid carcinoma cells which overexpress EGF receptor by the following methods. Cells were grown in roller bottles in 50% Delbuco's Modified Eagle and 50% HAM F-12 nutrient media (Gibco) containing 10% fetal calf serum. Approximately 10^9 cells were lysed in two volumes of buffer containing 20 mM 2-(4N-[2-hydroxyethyl]piperazin-1-yl)ethanesulfonic acid (hepes), pH 7.4, 5 mM ethylene glycol bis(2-aminoethyl ether) N,N,N′,N′-tetraacetic acid, 1% Triton X-100, 10% glycerol, 0.1 mM sodium orthovanadate, 5 mM sodium fluoride, 4 mM pyrophosphate, 4 mM benzamide, 1 mM dithiothreitol, 80 μg/mL aprotinin, 40 μg/mL leupeptin and 1 mM phenylmethylsulfonyl fluoride. After centrifugation at 25,000×g for 10 minutes, the supernatant was equilibrated for 2 h at 4° C. with 10 mL of wheat germ agglutinin sepharose that was previously equilibrated with 50 mM Hepes, […], 0.1% Triton X-100 and 150 mM NaCl, pH 7.5, (equilibration buffer). Contaminating proteins were washed from the resin with 1 M NaCl in equilibration buffer, and the enzyme was eluted with 0.5 M N-acetyl-1-D-glucosamine in equilibration buffer, followed by 1 mM urea. The enzyme was eluted with 0.1 mg/ml EGF.
The reaction was terminated by the addition of 2 mL of […] phosphoric acid and passed through a 2.5 cm phosphocellulose filter disc to bind the peptide. The filter was washed five times with 75 mM phosphoric acid and placed in a vial along with 5 mL of scintillation fluid (Ready gel Beckman).

A further assay concerns the target T2, EGF receptor (Homo sapiens, UniProt P00533).
T2 construct: EGF receptor autophosphorylation in A431 human epidermoid carcinoma; endogenous in cells; host or cells: A431 human epidermoid carcinoma cells (ATCC)
The assay can be described thus: Inhibition of EGF-induced autophosphorylation in A431 epidermoid carcinoma cells. The assay is classed as cell-based. On the procedure: (§1) Cells were grown to 100% confluency in 100 mm Petrie dishes (Corning). After the cells were treated for 5 minutes with either EGF (epidermal growth factor), PDGF, or bFGF (basic fibroblast growth factor) (20 ng/ml) or 1 ml of conditioned media from MDA-MB-231 cells, the media was removed and the monolayer scraped into 1 ml of ice cold lysis buffer (50 mM Hepes, pH 7.5, 150 mM NaCl, 10% glycerol, 1% triton X-100, 1 mM EDTA, 1 mM EGTA, 10 mM sodium pyrophosphate, 30 mM p-nitrophenyl phosphate, 1 mM orthovanadate, 50 mM sodium fluoride, 1 mM phenylmethylsulfonylfluoride, 10 μg/ml of aprotinin, and 10 μg/ml of leupeptin). The lysate was transferred to a microfuge tube (small centrifuge that holds 1-2 ml plastic centrifuge tubes), allowed to sit on ice 15 minutes and centrifuged 5 minutes at 10,000×g. The supernatant was transferred to a clean microfuge tube and 5 μg of antibody was added to designated samples. The tubes were rotated for 2 hours at […] after which 25 μl of protein A sepharose was added and then rotation continued for at least 2 more hours. The protein A separose was washed 5 times with 50 mM Hepes, pH 7.5, 150 mM NaCl, 10% glycerol and 0.02% sodium azide. […] The extract were transferred to a microfuge tube and heated to 100° C. for 5 minutes. […] Proteins in the gel were electrophoretically transferred to nitrocellulose and the membrane was washed once in 10 mM Tris buffer, pH 7.2, 150 mM NaCl, 0.01% Azide (TNA) and blocked overnight in TNA containing 5% bovine serum albumin and 1% ovalbumin (blocking buffer). The membrane was blotted for 2 hours with the primary antibody (1 μg/ml in blocking buffer) and then washed 2 times sequentially in TNA, TNA containing 0.05% Tween-20 and 0.05% Nonidet P-40 (commercially available detergent) and TNA.

The test system of another assay is erbB-2, 3, 4. The experiment in a line: Inhibition of conditioned media-induced autophosphorylation in SK-BR-3 breast tumor cells. Type of assay: cell-based, human. Conditions: SK-BR-3 cells, read-out: SKBR-3 IC50. On the procedure: as §1
Assay [2] has as its system NIH 3T3 mouse fibroblast line, transfected with the human EGFR gene. The assay can be described thus: Morphology of EGF-treated NIH 3T3 fibroblasts transfected with the human EGFR gene. The assay is classed as cell-based. Conditions: 100 ng/mL of EGF and 5 μm of compound (FIG. 17). The procedure:
FIG. 15 is a photograph of an NIH 3T3 mouse fibroblast line, transfected with the human EGFR gene showing a normal flattened morphology;
FIG. 16 is a photograph of the same cell line treated with 100 ng/mL of EGF showing a typical spindly transformed morphology; and […]

A further assay relates to c-jun mRNA. The experiment in a line: Growth factor dependent expression of c-jun mRNA in Swiss 3T3 (Northern blot). The assay is classed as cell-based, mouse. Conditions: Swiss 3T3 cells, EGF-stimulated (FIG. 7). The procedure:
Total cellular RNA was isolated from untreated control or treated Swiss 3T3 cells using RNAzol-B (trademark of Tel Test Inc. for a kit used to isolate RNA from tissues) and adhered to the protocol described by the manufacturer. Forty to fifty μg of RNA was loaded onto a 1% agarose gel and electrophoresis carried out for 3-4 hours at 65 volts. The RNA in the gel was transferred by capillary action to a nylon membrane (Hybond-N, Amersham). The 40 mer c-jun probe was end labeled with [^32p]ATP using […] (Promega) and purified on a G25 sephadex column according to the procedure recommended by the supplier, Oncogene Science. Hybridization was performed overnight at 65° C. (c-jun is an immediate early transcription factor; it is one of the components of AP-1 while FOS is the second component of AP-1.
Gel of Example 40 (FIG. 7) detects mRNA-for c-jun by hybridization with a specific radiolabelled RNA probe for c-jun.

The test system of another assay is p39^c-jun. The experiment in a line: Growth factor mediated expression of p39 c-jun in Swiss 3T3 (Western blot). Type of assay: cell-based, mouse. The procedure: Monoclonal antibodies raised to the PDGF ([…]) receptor or phosphotyrosine were from Upstate Biotechnology, Inc., Lake Placid, N.Y. Anti-pp39^jun (antibody to the transcription factor c-jun, which is a 39 kDalton phosphoprotein) and anti-EGF receptor antibodies were from Oncogene Science, Uniondale, N.Y.
Cells were grown to 100% confluency in 100 mm Petrie dishes (Corning). After the cells were treated for 5 minutes with either EGF (epidermal growth factor), PDGF, or bFGF (basic fibroblast growth factor) (20 ng/ml) or 1 ml of conditioned media from MDA-MB-231 cells, the media was removed and the monolayer scraped into 1 ml of ice cold lysis buffer (50 mM Hepes, pH 7.5, 150 mM NaCl, 10% glycerol, 1% triton X-100, 1 mM EDTA, 1 mM EGTA, 10 mM sodium pyrophosphate, 30 mM p-nitrophenyl phosphate, 1 mM orthovanadate, 50 mM sodium fluoride, 1 mM phenylmethylsulfonylfluoride, 10 μg/ml of aprotinin, and 10 μg/ml of leupeptin). The lysate was transferred to a microfuge tube (small centrifuge that holds 1-2 ml plastic centrifuge tubes), allowed to sit on ice 15 minutes and centrifuged 5 minutes at 10,000×g. The supernatant was transferred to a clean microfuge tube and 5 μg of antibody was added to designated samples. The tubes were rotated for 2 hours at […] after which 25 μl of protein A sepharose was added and then rotation continued for at least 2 more hours. The protein A separose was washed 5 times with 50 mM Hepes, pH 7.5, 150 mM NaCl, 10% glycerol and 0.02% sodium azide. The precipitates were resuspended with 30 μl of Laemlli buffer (Laemmli, […], pp. 680-685, 1970), heated to 100° C. for 5 minutes and centrifuged to obtain the supernatant. Whole cell extracts were made by scraping cells grown in the wells of 6 well plates into 0.2 ml of boiling Laemmli buffer. The extract were transferred to a microfuge tube and heated to 100° C. for 5 minutes. […]
(In general: In western blotting, separated proteins are transferred to a membrane and probed.)

Setting [3] is: Table 1, values in nM, read-out: EGF Receptor Tyrosine Kinase Inhibition IC50.

Where two headings read alike, the source gives them in different places.

T1 sequence (P00533 25-1210): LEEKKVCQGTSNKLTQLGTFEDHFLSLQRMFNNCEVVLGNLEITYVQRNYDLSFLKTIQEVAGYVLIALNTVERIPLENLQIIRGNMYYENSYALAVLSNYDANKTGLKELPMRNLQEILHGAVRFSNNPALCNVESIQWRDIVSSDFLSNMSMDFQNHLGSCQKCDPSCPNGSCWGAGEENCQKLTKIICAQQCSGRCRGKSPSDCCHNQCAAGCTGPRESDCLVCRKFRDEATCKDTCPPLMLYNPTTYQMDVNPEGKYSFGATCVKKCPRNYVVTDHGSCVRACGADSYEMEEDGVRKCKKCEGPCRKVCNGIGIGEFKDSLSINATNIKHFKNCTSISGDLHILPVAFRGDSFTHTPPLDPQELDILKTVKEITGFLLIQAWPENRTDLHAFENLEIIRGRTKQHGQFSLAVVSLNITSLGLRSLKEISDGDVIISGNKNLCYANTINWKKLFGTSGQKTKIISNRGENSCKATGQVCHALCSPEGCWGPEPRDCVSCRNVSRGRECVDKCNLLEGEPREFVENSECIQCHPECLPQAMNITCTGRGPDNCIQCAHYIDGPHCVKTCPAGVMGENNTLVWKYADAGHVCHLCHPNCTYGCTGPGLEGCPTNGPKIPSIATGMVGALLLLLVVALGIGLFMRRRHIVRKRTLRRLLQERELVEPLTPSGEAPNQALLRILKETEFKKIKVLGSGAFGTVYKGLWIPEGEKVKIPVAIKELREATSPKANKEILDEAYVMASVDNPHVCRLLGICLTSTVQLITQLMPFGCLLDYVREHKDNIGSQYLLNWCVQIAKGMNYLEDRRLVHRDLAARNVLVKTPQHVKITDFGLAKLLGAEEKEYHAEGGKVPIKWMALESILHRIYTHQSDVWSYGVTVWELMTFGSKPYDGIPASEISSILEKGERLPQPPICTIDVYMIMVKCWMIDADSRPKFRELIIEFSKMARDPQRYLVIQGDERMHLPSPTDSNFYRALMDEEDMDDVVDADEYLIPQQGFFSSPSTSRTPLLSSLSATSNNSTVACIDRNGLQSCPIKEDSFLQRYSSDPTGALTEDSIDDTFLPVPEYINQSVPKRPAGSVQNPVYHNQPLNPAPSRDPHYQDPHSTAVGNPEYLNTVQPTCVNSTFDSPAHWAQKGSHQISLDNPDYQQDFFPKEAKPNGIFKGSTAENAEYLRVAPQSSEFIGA
T2 sequence (P00533 25-1210): as above

With `Nc1cc2ncnc(Nc3cccc(Br)c3)c2cn1` [Example 27, 7-Amino-4-(3-bromoanilino)pyrido[4,3-d]pyrimidine], the IC50 is 10 nM in assay [1] (setting [3]); 10 nM in assay [1] (enzyme value repeated in the autophosphorylation table, read-out: EGFR IC50); 110 nM against EGF receptor; around 800 nM in the assay with erbB-2, 3, 4. Also, the cell morphology entry in assay [2] was “morphology reverted from the transformed type back to the normal type”.
In the case of `Nc1cc2ncnc(NCc3ccccc3)c2cn1` [Example 40, 7-Amino-4-benzylaminopyrido[4 3-d]pyrimidine], the concentration for half-maximal inhibition (IC50) in assay [1] (setting [3]) is 578 nM. In addition, the “c-jun mRNA production” value in the assay with c-jun mRNA is recorded as “blocks this production for EGF-stimulated cells”. Also, the “c-jun expression (p39 c-jun protein)” value in the assay on p39^c-jun (Swiss 3T3, stimulated by EGF (FIG. 8)) was “block c-jun expression”; in the assay on p39^c-jun (Swiss 3T3, stimulated by PDGF (FIG. 8)), “not when stimulated by PDGF or b-FGF”; in the assay on p39^c-jun (Swiss 3T3, stimulated by b-FGF (FIG. 8)) it was “not when stimulated by PDGF or b-FGF”.
